Data taken from article PMC6155732, “Development of a UPLC-TQ/MS Approach for the Determination of Eleven Bioactive Components in Haizao Yuhu Decoction Plus-Minus Haizao and Gancao Drug Combination after Oral Administration in a Rat Model of Hypothyroidism” (Molecules : A Journal of Synthetic Chemistry and Natural …, 2016).

How the values were obtained:
[1] = Pharmacokinetics of compounds 1–11 in rat plasma (UPLC-TQ/MS) after oral administration of HYD and plus-minus Haizao/Gancao decoctions; type: in vivo, Wistar rats (PTU-induced model of hypothyroidism); settings: Wistar, model rats, n = 6, mean ± S.D.
Method: Plasma samples (200 μL) and IS solution (50 μL, 1215 ng/mL for diphenhydramine, 476 ng/mL for chloromycetin) were added to an Eppendorf tube, and this mixture was extracted with methanol (550 μL) by shaking on a vortex-mixer for 2 min, and centrifuged for 10 min at 13,000 rpm. The contents were evaporated to dryness in a rotary evaporator at 37 °C. The residue was reconstituted in methanol (100 μL) and centrifuged (13,000 rpm for 10 min). The supernatant was transferred to an autosample vial and an aliquot of 5 μL was injected onto the UPLC-MS/MS system for analysis.
The developed and validated method was used to evaluate the pharmacokinetics of the eleven compounds after oral administration of different fractions in […] (Figure 3). […] The pharmacokinetic parameters including half-life (T1/2), maximum plasma concentration (Cmax), time to reach the maximum concentration (Tmax), and area under concentration–time curve (AUC0~t) were calculated by a non-compartment model and are shown in Table 6.
A considerable increase in thyroid stimulating hormone (TSH) and decrease in triiodothyronine (T3) and tetraiodothyronine (T4) in serum are considered to be markers of successful hypothyroid rat model preparation. PTU is the classic drug used to replicate hypothyroidism in rat models. It is generally thought that PTU can decrease the level of thyroid hormone in a hypothyroid rat model by inhibiting the activity of TPO [31, 32]. Model Wistar rats were administered PTU intragastrically at a dose of 10 mg/kg (QD) for 2 weeks to establish hypothyroidism. Serum from model rats was collected on the last day of PTU administration and the T3, T4 and TSH levels were determined using test kits. Wistar rats with a considerable increase in […] and a decrease in serum T3 and T4 were considered to have hypothyroidism and were selected for subsequent pharmacokinetic studies.
For the pharmacokinetic studies, model Wistar rats were divided into six groups (n = 6 per group). Rats in the model HYD groups were administered HYD at a dose of 12 mL/kg intragastrically. In the model HYD-GC groups, HYD-GC (11 mL/kg) was administered. In the model HYD-HZ groups, HYD-HZ (11 mL/kg) was administered. In the model HYD-GC-HZ groups, HYD-GC-HZ (10 mL/kg) was administered. In the model GH groups, GH (2 mL/kg) was administered. In the model GC groups, GC (1 mL/kg) was administered. Blood samples were collected at specific time points before (0 min) and after oral administration (5, 10, 20, 40, 60, 120, 240, 480, 720, 1440 min). A total of 360 blood samples were collected. All blood samples were immediately centrifuged at 2500 rpm for 10 min to obtain plasma, which was labeled and frozen at −80 °C until analysis. Blank plasma was obtained from the rats without oral administration and was used to investigate the assay development and validation.
To determine the pharmacokinetic parameters of compounds 1–11 in different groups, concentration–time data were analyzed by DAS 3.2 software (Mathematical Pharmacology Professional Committee of China, Shanghai, China, 2011). Data were expressed as the mean and standard deviation (S.D.) with triplicate measurements. The identification of significant differences between different groups was carried out using the Student’s t-test. A p value < 0.05 was considered statistically significant.

CYP3A4 = test system: CYP3A4; design: method as in PMID 21462897; settings: cited from earlier work
CYP2C9 = test system: CYP2C9; design: method as in PMID 21462897; settings: cited from earlier work
CYP2C19 = test system: CYP2C19; design: method as in PMID 21462897; settings: cited from earlier work
[2] = 10 mL/kg, group HYD-GH (HYD minus Gancao and Haizao; HYD-GC-HZ), 10 mL/kg intragastrically
[3] = 11 mL/kg, group HYD-GC (HYD minus Gancao), 11 mL/kg intragastrically
[4] = 11 mL/kg, group HYD-HZ (HYD minus Haizao), 11 mL/kg intragastrically
[5] = 12 mL/kg, group HYD, 12 mL/kg intragastrically
[6] = 1 mL/kg, group GC (extract of Gancao), 1 mL/kg intragastrically
[7] = 2 mL/kg, group GH (extract of Gancao and Haizao), 2 mL/kg intragastrically

COc1ccc2ccc(=O)oc2c1CC=C(C)C [Compound 10, osthole]
AUC(0-t) [1, 2]: 98.5 ± 41 ng·h/mL
Cmax [1, 2]: 69.2 ± 25.6 ng/mL
Tmax [1, 2]: 0.53 ± 0.31 h
half-life [1, 2]: 0.68 ± 0.49 h
AUC(0-t) [1, 3]: 205 ± 94.7 ng·h/mL
Cmax [1, 3]: 101 ± 31.9 ng/mL
Tmax [1, 3]: 0.39 ± 0.14 h
half-life [1, 3]: 1.54 ± 0.51 h
AUC(0-t) [1, 4]: 295 ± 117 ng·h/mL
Cmax [1, 4]: 295 ± 117 ng/mL
Tmax [1, 4]: 0.61 ± 0.25 h
half-life [1, 4]: 1.45 ± 1.11 h
AUC(0-t) [1, 5]: 748 ± 225 ng·h/mL
Cmax [1, 5]: 458 ± 184 ng/mL
Tmax [1, 5]: 0.61 ± 0.14 h
half-life [1, 5]: 1.25 ± 0.03 h

CC1(C)[C@@H](O)CC[C@]2(C)[C@H]3C(=O)C=C4[C@@H]5C[C@@](C)(C(=O)O)CC[C@]5(C)CC[C@@]4(C)[C@]3(C)CC[C@@H]12 [Compound 11, glycyrrhetinic acid]
inhibitory potencies on CYP3A4 enzyme activity (CYP3A4): up to 50%
inhibitory potencies on CYP2C9 enzyme activity (CYP2C9): up to 50%
AUC(0-t) [1, 6]: 10500 ng·h/mL
Cmax [1, 6]: 776 ± 184 ng/mL
Tmax [1, 6]: 10 ± 2.31 h
half-life [1, 6]: 4.66 ± 5.33 h
AUC(0-t) [1, 7]: 22800 ng·h/mL
Cmax [1, 7]: 1250 ± 210 ng/mL
Tmax [1, 7]: 12.7 ± 5.89 h
half-life [1, 7]: 1.93 ± 0.04 h
AUC(0-t) [1, 4]: 12700 ng·h/mL
Cmax [1, 4]: 756 ± 58.1 ng/mL
Tmax [1, 4]: 12 h
half-life [1, 4]: 1.99 ± 0.03 h
AUC(0-t) [1, 5]: 9990 ± 1660 ng·h/mL
Cmax [1, 5]: 504 ± 101 ng/mL
Tmax [1, 5]: 9.33 ± 2.07 h
half-life [1, 5]: 3.01 ± 2.35 h
inhibitory potencies on CYP2C19 enzyme activity (CYP2C19): up to 50%

CC1(C)[C@@H](O[C@H]2O[C@H](C(=O)O)[C@@H](O)[C@H](O)[C@H]2O[C@@H]2O[C@H](C(=O)O)[C@@H](O)[C@H](O)[C@H]2O)CC[C@]2(C)[C@H]3C(=O)C=C4[C@@H]5C[C@@](C)(C(=O)O)CC[C@]5(C)CC[C@@]4(C)[C@]3(C)CC[C@@H]12 [Compound 7, glycyrrhizic acid]
AUC(0-t) [1, 6]: 1760 ± 1430 ng·h/mL
Cmax [1, 6]: 607 ± 137 ng/mL
Tmax [1, 6]: 1.25 ± 0.5 h
half-life [1, 6]: 4.47 ± 2.63 h
AUC(0-t) [1, 7]: 3600 ± 1840 ng·h/mL
Cmax [1, 7]: 1350 ± 322 ng/mL
Tmax [1, 7]: 0.56 ± 0.4 h
half-life [1, 7]: 9.94 ± 8.89 h
AUC(0-t) [1, 4]: 587 ± 261 ng·h/mL
Cmax [1, 4]: 587 ± 261 ng/mL
Tmax [1, 4]: 0.67 ± 0.42 h
half-life [1, 4]: 1.84 ± 1.82 h
AUC(0-t) [1, 5]: 1690 ± 639 ng·h/mL
Cmax [1, 5]: 1370 ± 712 ng/mL
Tmax [1, 5]: 0.292 ± 0.1 h
half-life [1, 5]: 1.58 ± 1.01 h

O=C1C[C@@H](c2ccc(O[C@@H]3O[C@H](CO)[C@@H](O)[C@H](O)[C@H]3O)cc2)Oc2cc(O)ccc21 [Compound 1, liquiritin]
AUC(0-t) [1, 6]: 229 ± 119 ng·h/mL
Cmax [1, 6]: 147 ± 37.7 ng/mL
Tmax [1, 6]: 0.67 h
half-life [1, 6]: 0.99 ± 0.34 h
AUC(0-t) [1, 7]: 2510 ± 814 ng·h/mL
Cmax [1, 7]: 254 ± 122 ng/mL
Tmax [1, 7]: 0.17 h
half-life [1, 7]: 1.34 ± 1.48 h
AUC(0-t) [1, 4]: 987 ± 567 ng·h/mL
Cmax [1, 4]: 494 ± 165 ng/mL
Tmax [1, 4]: 0.31 ± 0.07 h
half-life [1, 4]: 3.66 ± 3.3 h
AUC(0-t) [1, 5]: 1760 ± 287 ng·h/mL
Cmax [1, 5]: 1600 ± 595 ng/mL
Tmax [1, 5]: 0.19 ± 0.11 h
half-life [1, 5]: 9.23 ± 5.85 h
